Converted amounts (≈) assume the structure as drawn.
Columns and labels:
[1] = system: M. tuberculosis MDR strain M70; set-up: key: R- resistant; S -susceptible; details: cited from earlier work
[2] = system: M. tuberculosis MDR strain M14; set-up: key: R- resistant; S -susceptible; details: cited from earlier work
[3] = system: M. tuberculosis MDR strain TN5904; set-up: key: R- resistant; S -susceptible; details: cited from earlier work
[4] = system: M. tuberculosis MDR strain M28; set-up: key: R- resistant; S -susceptible; details: cited from earlier work
[5] = system: M. tuberculosis MDR strain M94; set-up: key: R- resistant; S -susceptible; details: cited from earlier work
M. tuberculosis H37Rv = assay: microbe, parasite or virus in culture; format: cell-based, Mycobacterium tuberculosis; details: for MIC: Mycobacterium tuberculosis, H37RV, read-out: MIC, µg/mL in M.tuberculosis strain H37Rv; for MIC, µg/mL in M.tuberculosis strain H37Rv: MABA assay, drug-susceptible strain H37Rv
[6] = system: M. tuberculosis MDR strain TN5904; assay: microbe, parasite or virus in culture; format: cell-based, Mycobacterium tuberculosis; details: for MIC: Mycobacterium tuberculosis, read-out: MIC, µg/mL in M.tuberculosis strain TN5904; for MIC, µg/mL in M.tuberculosis strain TN5904: MABA assay
[7] = system: M. tuberculosis MDR strain M14; assay: microbe, parasite or virus in culture; format: cell-based, Mycobacterium tuberculosis; details: for MIC: Mycobacterium tuberculosis, read-out: MIC, µg/mL in M.tuberculosis strain M14; for MIC, µg/mL in M.tuberculosis strain M14: MABA assay
[8] = system: M. tuberculosis MDR strain M94; assay: microbe, parasite or virus in culture; format: cell-based, Mycobacterium tuberculosis; details: for MIC: Mycobacterium tuberculosis, read-out: MIC, µg/mL in M.tuberculosis strain M94; for MIC, µg/mL in M.tuberculosis strain M94: MABA assay
[9] = system: M. tuberculosis MDR strain M28; assay: microbe, parasite or virus in culture; format: cell-based, Mycobacterium tuberculosis; details: for MIC: Mycobacterium tuberculosis, read-out: MIC, µg/mL in M.tuberculosis strain M28; for MIC, µg/mL in M.tuberculosis strain M28: MABA assay
[10] = system: M. tuberculosis MDR strain M70; assay: microbe, parasite or virus in culture; format: cell-based, Mycobacterium tuberculosis; details: for MIC: Mycobacterium tuberculosis, read-out: MIC, µg/mL in M.tuberculosis strain M70; for MIC, µg/mL in M.tuberculosis strain M70: MABA assay

| SMILES | Drug resistance feature of the strain [1] | Drug resistance feature of the strain [2] | Drug resistance feature of the strain [3] | Drug resistance feature of the strain [4] | Drug resistance feature of the strain [5] | MIC (M. tuberculosis H37Rv) [µg/mL] | MIC [6] [µg/mL] | MIC [7] [µg/mL] | MIC [8] [µg/mL] | MIC [9] [µg/mL] | MIC [10] [µg/mL] | MIC, µg/mL in M.tuberculosis strain H37Rv (M. tuberculosis H37Rv) [µg/mL] | MIC, µg/mL in M.tuberculosis strain TN5904 [6] [µg/mL] | MIC, µg/mL in M.tuberculosis strain M14 [7] [µg/mL] | MIC, µg/mL in M.tuberculosis strain M94 [8] [µg/mL] | MIC, µg/mL in M.tuberculosis strain M28 [9] [µg/mL] | MIC, µg/mL in M.tuberculosis strain M70 [10] [µg/mL] |
| --- | --- | --- | --- | --- | --- | --- | --- | --- | --- | --- | --- | --- | --- | --- | --- | --- | --- |
| NC(=O)c1cnccn1 [PZA] | R | R | R | R | S | – | – | – | – | – | – | – | – | – | – | – | – |
| CN(C)CCn1nnc(-c2ccc(-c3ccc(N4C[C@H](CN)OC4=O)cc3F)cn2)n1.Cl [AKG-28] | – | – | – | – | – | 0.03 | 0.015 | 0.015 | 0.015 | 0.015 | ≤ 0.004 | – | – | – | – | – | – |
| COc1c(N2C[C@@H]3CCCN[C@@H]3C2)c(F)cc2c(=O)c(C(=O)O)cn(C3CC3)c12 [MOX] | – | – | – | – | – | 0.125 (≈ 0.311 µM) | 0.125 (≈ 0.311 µM) | 0.125 (≈ 0.311 µM) | 0.125 (≈ 0.311 µM) | 2 (≈ 4.98 µM) | 1 (≈ 2.49 µM) | – | – | – | – | – | – |
| CC(=O)NC[C@H]1CN(c2ccc(-c3ccc(-c4nnn(CCN(C)C)n4)nc3)c(F)c2)C(=O)O1 [AKG-38] | – | – | – | – | – | 0.03 (≈ 0.064 µM) | 0.03 (≈ 0.064 µM) | 0.03 (≈ 0.064 µM) | 0.03 (≈ 0.064 µM) | 0.03 (≈ 0.064 µM) | ≤ 0.015 | – | – | – | – | – | – |
| CN[C@@H]1[C@H](O[C@H]2[C@H](O[C@H]3[C@H](O)[C@@H](O)[C@H](N=C(N)N)[C@@H](O)[C@@H]3N=C(N)N)O[C@@H](C)[C@]2(O)C=O)O[C@@H](CO)[C@H](O)[C@H]1O [STR] | R | R | R | S | R | – | – | – | – | – | – | 0.5 (≈ 0.86 µM) | 1 (≈ 1.72 µM) | >8 | >8 | 0.125 (≈ 0.215 µM) | 2 (≈ 3.44 µM) |
| CC(=O)NC[C@H]1CN(c2ccc(N3CCOCC3)c(F)c2)C(=O)O1 [Linezolid] | – | – | – | – | – | 2 (≈ 5.93 µM) | 1 (≈ 2.96 µM) | 0.5 (≈ 1.48 µM) | 0.5 (≈ 1.48 µM) | 0.5 (≈ 1.48 µM) | 0.5 (≈ 1.48 µM) | – | – | – | – | – | – |
| CN(C)CCn1nnc(-c2ccc(-c3ccc(N4C[C@H](CO)OC4=O)cc3F)cn2)n1 [AKG-16] | – | – | – | – | – | – | 0.06 (≈ 0.14 µM) | 0.06 (≈ 0.14 µM) | 0.06 (≈ 0.14 µM) | 0.25 (≈ 0.585 µM) | 0.125 (≈ 0.292 µM) | – | – | – | – | – | – |
| CCN(CC)CCn1nnc(-c2ccc(-c3ccc(N4C[C@H](CNC(C)=O)OC4=O)cc3F)cn2)n1 [AKG-39] | – | – | – | – | – | – | 0.25 (≈ 0.503 µM) | 0.5 (≈ 1.01 µM) | 1 (≈ 2.01 µM) | 0.5 (≈ 1.01 µM) | 0.125 (≈ 0.252 µM) | – | – | – | – | – | – |
| NNC(=O)c1ccncc1 [INH] | R | R | R | R | R | – | – | – | – | – | – | 0.06 (≈ 0.438 µM) | 2 (≈ 14.6 µM) | >2 | >2 | >2 | >2 |
| CC[C@@H](CO)NCCN[C@@H](CC)CO [EMB] | S | S | S | R | S | – | – | – | – | – | – | – | – | – | – | – | – |
| Cl.Cn1nnc(-c2ccc(-c3ccc(N4C[C@H](CN)OC4=O)cc3F)cn2)n1 [AKG-3] | – | – | – | – | – | 0.125 | 0.06 | 0.03 | 0.06 | 0.06 | ≤ 0.015 | – | – | – | – | – | – |
| Cl.Cl.NCCn1nnc(-c2ccc(-c3ccc(N4C[C@H](CN)OC4=O)cc3F)cn2)n1 [AKG-29] | – | – | – | – | – | 0.25 | 0.06 | 0.06 | 0.125 | 0.125 | ≤ 0.03 | – | – | – | – | – | – |
| CO[C@H]1/C=C/O[C@@]2(C)Oc3c(C)c(O)c4c(O)c(c(/C=N/N5CCN(C)CC5)c(O)c4c3C2=O)NC(=O)/C(C)=C\C=C\[C@H](C)[C@H](O)[C@@H](C)[C@@H](O)[C@@H](C)[C@H](OC(C)=O)[C@@H]1C [RIF] | R | S | R | R | S | – | – | – | – | – | – | 0.06 (≈ 0.0729 µM) | >8 | 0.06 (≈ 0.0729 µM) | – | >8 | >8 |

Source: patent publication US20230348447A1, “OXAZOLIDINONE COMPOUNDS, LIPOSOME COMPOSITIONS COMPRISING OXAZOLIDINONE COMPOUNDS AND METHOD OF USE THEREOF” (priority 2020, published 2023)
